Reference: BigSolDB 2.1

COC(=O)[C@H](N)c1ccc(O)cc1
Details | solubility (mole fraction)
in ethanol, 283.15 K | 0.00129
in ethanol, 288.13 K | 0.00179
in ethanol, 293.15 K | 0.0024
in ethanol, 298.17 K | 0.00318
in ethanol, 303.15 K | 0.00411
in ethanol, 308.2 K | 0.00522
in ethanol, 313.15 K | 0.00652
in ethanol, 318.1 K | 0.008
in ethanol, 323.15 K | 0.00968
in ethyl acetate, 283.15 K | 0.000154
in ethyl acetate, 288.17 K | 0.00029
in ethyl acetate, 293.15 K | 0.000479
in ethyl acetate, 298.15 K | 0.000761
in ethyl acetate, 303.16 K | 0.00113
in ethyl acetate, 308.15 K | 0.00158
in ethyl acetate, 313.15 K | 0.00209
in ethyl acetate, 318.18 K | 0.00261
in ethyl acetate, 323.15 K | 0.00311
in isopropanol, 283.15 K | 0.000167
in isopropanol, 288.2 K | 0.000327
in isopropanol, 293.14 K | 0.000576
in isopropanol, 298.15 K | 0.000976
in isopropanol, 303.15 K | 0.00163
in isopropanol, 308.2 K | 0.00258
in isopropanol, 313.2 K | 0.00368
in isopropanol, 318.15 K | 0.00517
in isopropanol, 323.15 K | 0.00677
in isopropyl acetate, 283.17 K | 4.68e-05
in isopropyl acetate, 288.15 K | 8.53e-05
in isopropyl acetate, 293.14 K | 0.000146
in isopropyl acetate, 298.15 K | 0.000237
in isopropyl acetate, 303.13 K | 0.00037
in isopropyl acetate, 308.15 K | 0.000555
in isopropyl acetate, 313.15 K | 0.0008
in isopropyl acetate, 318.15 K | 0.00111
in isopropyl acetate, 323.15 K | 0.00149
in methanol, 283.1 K | 0.00221
in methanol, 288.15 K | 0.00273
in methanol, 293.24 K | 0.00338
in methanol, 298.1 K | 0.00415
in methanol, 303.15 K | 0.00505
in methanol, 308.2 K | 0.00611
in methanol, 313.2 K | 0.00732
in methanol, 318.15 K | 0.00872
in methanol, 323.2 K | 0.0103
in methyl acetate, 283.12 K | 0.000417
in methyl acetate, 288.2 K | 0.000578
in methyl acetate, 293.17 K | 0.000914
in methyl acetate, 298.14 K | 0.00136
in methyl acetate, 303.15 K | 0.0019
in methyl acetate, 308.15 K | 0.00253
in methyl acetate, 313.15 K | 0.0032
in methyl acetate, 318.15 K | 0.00385
in methyl acetate, 323.15 K | 0.00444
in n-butanol, 283.15 K | 0.000489
in n-butanol, 288.2 K | 0.000737
in n-butanol, 293.17 K | 0.00114
in n-butanol, 298.18 K | 0.00164
in n-butanol, 303.15 K | 0.00224
in n-butanol, 308.2 K | 0.00308
in n-butanol, 313.15 K | 0.00418
in n-butanol, 318.15 K | 0.00561
in n-butanol, 323.15 K | 0.00733
in n-butyl acetate, 283.1 K | 5.67e-05
in n-butyl acetate, 288.15 K | 8.11e-05
in n-butyl acetate, 293.15 K | 0.000116
in n-butyl acetate, 298.17 K | 0.000165
in n-butyl acetate, 303.15 K | 0.000233
in n-butyl acetate, 308.15 K | 0.000326
in n-butyl acetate, 313.14 K | 0.000456
in n-butyl acetate, 318.15 K | 0.000626
in n-butyl acetate, 323.12 K | 0.000873
in n-pentanol, 283.14 K | 6.94e-05
in n-pentanol, 288.2 K | 0.000156
in n-pentanol, 293.15 K | 0.000322
in n-pentanol, 298.15 K | 0.000606
in n-pentanol, 303.15 K | 0.00107
in n-pentanol, 308.14 K | 0.00177
in n-pentanol, 313.15 K | 0.00273
in n-pentanol, 318.15 K | 0.00399
in n-pentanol, 323.15 K | 0.00549
in n-propanol, 283.13 K | 0.000939
in n-propanol, 288.2 K | 0.00127
in n-propanol, 293.15 K | 0.00173
in n-propanol, 298.13 K | 0.00226
in n-propanol, 303.15 K | 0.00295
in n-propanol, 308.15 K | 0.00382
in n-propanol, 313.15 K | 0.0049
in n-propanol, 318.2 K | 0.00624
in n-propanol, 323.15 K | 0.00787
in n-propyl acetate, 283.15 K | 6.95e-05
in n-propyl acetate, 288.14 K | 0.000135
in n-propyl acetate, 293.17 K | 0.000242
in n-propyl acetate, 298.2 K | 0.000415
in n-propyl acetate, 303.15 K | 0.000663
in n-propyl acetate, 308.15 K | 0.00102
in n-propyl acetate, 313.15 K | 0.0015
in n-propyl acetate, 318.15 K | 0.00203
in n-propyl acetate, 323.15 K | 0.00275
in water, 283.13 K | 1.9e-05
in water, 288.16 K | 2.8e-05
in water, 293.15 K | 4.81e-05
in water, 298.15 K | 7.86e-05
in water, 303.18 K | 0.000123
in water, 308.15 K | 0.000177
in water, 313.2 K | 0.000232
in water, 318.15 K | 0.0003
in water, 323.15 K | 0.00037
